Legend:
lipase [1] = experiment: Serum lipase activity, caerulein mediated pancreatitis model; type: in vivo; details: C57BL/6 mice, oral 10, 20, 40 mg/kg one day before caerulein; vs caerulein treated group
Experimental: (§1) In this invention, C57BL/6 mice at the body weight of about 22±2 g were used. All the mice were raised in a sterile animal laboratory with constant temperature (22˜26[…]) and humidity (55˜60%). The mice were adapted for 1 week while feeding with normal solid feed (Samtaco Korea) and water. All the experiments were performed according to the guide for the care and use of laboratory animals set by Wonkwang University.
(§2) Serum was obtained and then OD595 and OD412 were measured by using amylase activity analysis kit (DAMY-100; BioAssay Systems, USA) and lipase activity analysis kit (DLPS-100; BioAssay Systems, USA) to investigate the activities of amylase and lipase.

MCP-1 = experiment: Expression of MCP-1 in pancreas by RT-PCR, caerulein mediated pancreatitis model; type: in vivo; details: C57BL/6 mice, oral 10, 20, 40 mg/kg one day before caerulein, vs caerulein treated group
Experimental: as §1

amylase [2] = experiment: Serum amylase activity, caerulein mediated pancreatitis model; type: in vivo; details: C57BL/6 mice, oral 10, 20, 40 mg/kg one day before caerulein; vs caerulein treated group
Experimental: as §1, §2

[3] = tested on: lung damage induced by caerulein; experiment: Lung damage induced by pancreatitis, C57/BL6 mouse; type: in vivo; details: cotreatment 10, 20, 40 mg/kg
[4] = tested on: caerulein mediated pancreatitis; experiment: Morphological changes of pancreas tissue (hematoxylin-eosin, histological scores), preventive treatment; type: in vivo; details: C57/BL6 mouse, oral 10, 20, 40 mg/kg one day before caerulein; dose-dependently
Experimental: as §1
Pancreas tissues were separated, fixed in 10% formalin for 24 hours at 4[…], demineralized with 10% ethylenediaminetetra-acetic acid (EDTA, pH 7.4) solution, washed, dehydrated, embedded in paraffin and cut into 5 μm sections. The sections were stained with hematoxylin-eosin, followed by observation under optical microscope.

IL-1β [5] = experiment: Expression of IL-1β in pancreas by real-time PCR, caerulein mediated pancreatitis model; type: in vivo; details: C57BL/6 mice, oral treatment one day before caerulein, vs caerulein treated group
Experimental: as §1
(§3) Serum was obtained from the animal model and then the level of serum IL-1β was measured by using mouse IL-1β ELISA kit (BD, USA). First, nasal lavage fluid or diluted serum was loaded in the 96-well plate coated with the mouse IL-1β specific antibody, followed by reaction at room temperature for 2 hours. After washing the plate, biotin conjugate was added thereto, followed by reaction at room temperature for 1 hour. After washing the plate, streptavidin-HRP working solution was added thereto, followed by reaction. After washing the plate again, stabilized chromogen was added thereto, followed by reaction. Then, OD450 was measured. In addition, the expression of IL-1β in pancreas was confirmed by real-time PCR in each pancreas tissue. To extract total RNA, 1 mL of TRIzol (Invitrogen, USA) was added to 20 mg of each pancreas tissue, which stood on ice for 5 minutes to lyse cells. […] The RNA was quantified by using Nanodrop 2000 (Thermo, USA). […]

[6] = tested on: caerulein mediated pancreatitis; experiment: Ratio of pancreas weight to body weight, caerulein mediated pancreatitis model; type: in vivo; details: C57BL/6 mice, oral 10, 20, 40 mg/kg one day before caerulein (50 μg/kg i.p. x6); vs caerulein treated group
Experimental: as §1, with “University. […] When pancreatitis is developed, the weight of pancreas is known to be increased because of edema. Thus, blood was extracted from all the animals finished with the experiment and then the ratio of the pancreas weight to the body weight was measured. […] After blood was extracted, the pancreas was cut out and the weight of the pancreas to the body weight was measured by the pancreas weight (wet pancreas weight)/body weight (wet body weight) formula of Grady method.” for “University.”

IL-1β [7] = experiment: Serum IL-1β level by ELISA, caerulein mediated pancreatitis model; type: in vivo; details: C57BL/6 mice, oral 10, 20, 40 mg/kg one day before caerulein, dose-dependently, vs caerulein treated group
Experimental: as §1, §3

NQO-1 knock out mouse [8] = experiment: Lung damage induced by pancreatitis, NQO-1 knock out mouse; type: in vivo; details: cotreatment with β-lapachone
amylase [9] = experiment: Serum amylase activity in NQO-1 knock out mouse; type: in vivo; details: NQO1 knock out mouse; caerulein treated group vs β-lapachone cotreated group
Experimental: (§4) To confirm whether or not the protective effect of β-lapachone on pancreatitis was via the activation pathway of NQO-1 enzyme, the present inventors investigated the weight of pancreas, the activities of serum amylase and lipase, and the concentration of serum IL-1β in NQO-1 knock out mouse.
(§5) Then, the ratio of the pancreas weight to the body weight was calculated by the same manner as described in Experimental Example 2. The activities of serum amylase and lipase were measured using a kit by the same manner as described in Experimental Example 3.

lipase [10] = experiment: Serum lipase activity in NQO-1 knock out mouse; type: in vivo; details: NQO1 knock out mouse; caerulein treated group vs β-lapachone cotreated group
Experimental: as §4, §5

IL-1β [11] = experiment: Serum IL-1β concentration in NQO-1 knock out mouse; type: in vivo; details: NQO1 knock out mouse; caerulein treated group vs β-lapachone cotreated group
Experimental: as §4, §5

[12] = tested on: pancreatitis induced by caerulein; experiment: Therapeutic effect on caerulein-induced pancreatitis, pancreas tissue morphology; type: in vivo, C57BL/6 mice; details: intravenous injection six hours after the final caerulein administration; 10, 20, 40 mg/kg
Experimental: as §1

NQO-1 knock out mouse [13] = experiment: Ratio of pancreas weight to body weight in NQO-1 knock out mouse; type: in vivo; details: NQO1 knock out mouse; caerulein treated group vs β-lapachone cotreated group
Experimental: as §4, §5

NQO-1 knock out mouse [14] = experiment: Morphological changes of pancreas tissue in NQO1 knock out mouse; type: in vivo; details: 40 mg/kg plus caerulein, vs caerulein treated group
Excerpt: β-lapachone is known as a co-substrate of NQO-1 (NAD(P)H: quinone oxidoreductase-1). So, in order to confirm whether or not the pancreas protection effect of β-lapachone was via the activation pathway of NQO-1, the morphological changes of pancreas were investigated in NQO-1 knock out mouse.
Then, the pancreas tissues were stained with hematoxylin-eosin by the same manner as described in Experimental Example 5, followed by observation under optical microscope.

SMILES	lipase activity in serum (lipase [1])	expression of MCP-1 in pancreas (MCP-1)	amylase activity in serum (amylase [2])	lung damage induced by caerulein [3]	edema, inflammation, and cell necrosis of pancreas tissues induced by caerulein (histological scores) [4]	expression of IL-1β in pancreas (IL-1β [5])	ratio of pancreas weight/body weight [6]	serum IL-1β level (IL-1β [7])	lung damage induced by caerulein (NQO-1 knock out mouse [8])	activity of serum amylase (amylase [9])	activity of serum lipase (lipase [10])	concentration of serum IL-1β (IL-1β [11])	edema, inflammation, and cell necrosis of pancreas tissues induced by caerulein (histological scores) [12]	ratio of pancreas weight/body weight (NQO-1 knock out mouse [13])	edema, inflammation, and cell necrosis of pancreas tissues (NQO-1 knock out mouse [14])
CC1OC2=C(C(=O)C(=O)c3ccccc32)C1(C)C (centres unmarked) [dunnione]	significantly reduced dose-dependently	reduced dose-dependently	significantly reduced dose-dependently	significantly inhibited	all inhibited	significantly reduced	significantly reduced dose-dependently	significantly reduced	–	–	–	–	–	–	–
CC1(C)CCC2=C(O1)c1ccccc1C(=O)C2=O [β-lapachone]	significantly reduced dose-dependently	reduced dose-dependently	significantly reduced dose-dependently	inhibited	all inhibited	significantly reduced	significantly reduced dose-dependently	significantly reduced	not inhibited	not significantly different	not significantly different	not much different	all reduced	not significantly different	not reduced
